Read-outs that look alike come from different tables or passages of the source.
Legend:
[1] = test system: NCI-H358 cells (express KRas G12C), Phospho-ERK; test: Cellular inhibition of KRas G12C: Phospho-ERK in NCI-H358 cells; type: cell-based; conditions: Homo sapiens
How it was run: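 IC50 derived by 4-parameter fit of GAPDH-normalized pERK(Thr202/Tyr204) signal, as percent of DMSO control. Signal came from in-cell immunodetection with infrared secondaries after 3 h compound exposure of KRas G12C NCI-H358 cells at 0.5% DMSO.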

KRas G12C = KRas G12C (Homo sapiens, UniProt P01116, C118S/C51S/C80L/G12C); test: KRas G12C Modification Assay (LCMS detection of covalent adduct); type: binding
How it was run: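 Covalent modification was read by reverse-phase LC/MS of intact protein after compound exposure, each reaction stopped at its time point with 25 mM acetic acid. Unmodified-protein signal, taken as percent of total, was normalised to untreated protein and reported as POC.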

[2] = pERK(Thr202/Tyr204) normalized with GAPDH, NCI-H358 cells, 3 hours, read-out: IC50
[3] = normalized percent of control, tested at 5 μM concentration for 3 hours
[4] = NCI-H358, 3 h, pERK(Thr202/Tyr204) normalized with GAPDH, NCI-H358 cells, 3 hours, read-out: IC50

Row | SMILES | IC50 [1, 2] [µM] | POC (KRas G12C; [3]) | IC50 [1, 4] [µM] | POC (KRas G12C; 5 µM) | IC50 ([1]; NCI-H358, 3 h) [µM]
1 | C=CC(=O)N1CCN(c2nc(OCCCN3C[C@@H]4C[C@H]3CO4)nc3c2CCN(c2cc(O)cc4ccccc24)C3)CC1CC#N (stereo partly drawn) [Example 153, 2-[4-[7-(3-hydroxy-1-naphthyl)-2-[3-[(1S,4S)-2-oxa-5-azabicyclo[2.2.1]heptan-5-yl]propoxy]-6,8-dihydro-5H-pyrido[3,4-d]pyrimidin-4-yl]-1-prop-2-enoyl-piperazin-2-yl]acetonitrile] | 0.0001 to 1 | C (“C”>50% POC) |  |  | 
2 | C=CC(=O)N1CCN(c2nc(OCCCN3C[C@@H]4C[C@H]3CO4)nc3c2CCN(c2cccc4ccccc24)C3)CC1CC#N (stereo partly drawn) [Example 154, 2-[4-[7-(1-naphthyl)-2-[3-[(1S,4S)-2-oxa-5-azabicyclo[2.2.1]heptan-5-yl]propoxy]-6,8-dihydro-5H-pyrido[3,4-d]pyrimidin-4-yl]-1-prop-2-enoyl-piperazin-2-yl]acetonitrile] |  | C (“C”>50% POC) | 0.0001 to 1 |  | 
3 | C=CC(=O)N1CCN(c2nc(OC[C@@H]3CCCN3C)nc3c2CCN(c2c(C)ccc4[nH]ncc24)C3)CC1 [Example 155, (S)-1-(4-(7-(5-methyl-1H-indazol-4-yl)-2-((1-methylpyrrolidin-2-yl)methoxy)-5,6,7,8-tetrahydropyrido[3,4-d]pyrimidin-4-yl)piperazin-1-yl)prop-2-en-1-one] | 0.0001 to 1 |  |  | C (key: “A”≤25% POC; “B”>25% POC−≤50% POC; “C”>50% POC) | 
4 | C=CC(=O)N1CCN(c2nc(OC[C@@H]3CCCN3C)nc3c2CCN(c2c(C(F)(F)F)ccc4[nH]ncc24)C3)CC1 [Example 156, (S)-1-(4-(2-((1-methylpyrrolidin-2-yl)methoxy)-7-(5-(trifluoromethyl)-1H-indazol-4-yl)-5,6,7,8-tetrahydropyrido[3,4-d]pyrimidin-4-yl)piperazin-1-yl)prop-2-en-1-one] |  | C (“C”>50% POC) | 0.0001 to 1 |  | 
5 | C=CC(=O)N1CCN(c2nc(OC[C@@H]3CCCN3C)nc3c2CCN(c2c(OC)ccc4[nH]ncc24)C3)CC1 [Example 157, (S)-1-(4-(7-(5-methoxy-1H-indazol-4-yl)-2-((1-methylpyrrolidin-2-yl)methoxy)-5,6,7,8-tetrahydropyrido[3,4-d]pyrimidin-4-yl)piperazin-1-yl)prop-2-en-1-one] |  | C (“C”>50% POC) | > 1 |  | 
6 | C=CC(=O)N1CCN(c2nc(OC[C@@H]3CCCN3C)nc3c2CCN(c2ccccc2C(C)C)C3)CC1 [Example 158, 1-[4-[7-(2-isopropylphenyl)-2-[[(2S)-1-methylpyrrolidin-2-yl]methoxy]-6,8-dihydro-5H-pyrido[3,4-d]pyrimidin-4-yl]piperazin-1-yl]prop-2-en-1-one] | > 1 | C (“C”>50% POC) |  |  | 
7 | C=CC(=O)N1CCN(c2nc(OC[C@@H]3CCCN3C)nc3c2CCN(c2ccccc2C(F)(F)F)C3)CC1 [Example 159, (S)-1-(4-(2-((1-methylpyrrolidin-2-yl)methoxy)-7-(2-(trifluoromethyl)phenyl)-5,6,7,8-tetrahydropyrido[3,4-d]pyrimidin-4-yl)piperazin-1-yl)prop-2-en-1-one] |  | C (“C”>50% POC) | > 1 |  | 
8 | C=CC(=O)N1CCN(c2nc(OCCCN3CCCCC3)nc3c2CCN(c2c(C)ccc4[nH]ncc24)C3)CC1 [Example 160, 1-(4-(7-(5-methyl-1H-indazol-4-yl)-2-(3-(piperidin-1-yl)propoxy)-5,6,7,8-tetrahydropyrido[3,4-d]pyrimidin-4-yl)piperazin-1-yl)prop-2-en-1-one] | > 1 | C (“C”>50% POC) |  |  | 
9 | C=CC(=O)N1CCN(c2nc(OCC3CCN(C)C3)nc3c2CCN(c2c(C)ccc4[nH]ncc24)C3)CC1 (centres unmarked) [Example 161, 1-[4-[7-(5-methyl-1H-indazol-4-yl)-2-[(1-methylpyrrolidin-3-yl)methoxy]-6,8-dihydro-5H-pyrido[3,4-d]pyrimidin-4-yl]piperazin-1-yl]prop-2-en-1-one] | > 1 | C (“C”>50% POC) |  |  | 
10 | C=CC(=O)N1CCN(c2nc(O[C@H](C)CN(C)C)nc3c2CCN(c2c(C)ccc4[nH]ncc24)C3)CC1 [Example 162, 1-[4-[2-[(1R)-2-(dimethylamino)-1-methyl-ethoxy]-7-(5-methyl-1H-indazol-4-yl)-6,8-dihydro-5H-pyrido[3,4-d]pyrimidin-4-yl]piperazin-1-yl]prop-2-en-1-one] | > 1 | B (“B”>25% POC−≤50% POC) |  |  | 
11 | C=CC(=O)N1CCN(c2nc(OCCN(CC)CC)nc3c2CCN(c2c(C)ccc4[nH]ncc24)C3)CC1 [Example 163, 1-(4-(2-(2-(diethylamino)ethoxy)-7-(5-methyl-1H-indazol-4-yl)-5,6,7,8-tetrahydropyrido[3,4-d]pyrimidin-4-yl)piperazin-1-yl)prop-2-en-1-one] | > 1 | C (“C”>50% POC) |  |  | 
12 | C=CC(=O)N1CCN(c2nc(OCCN3CCCCC3)nc3c2CCN(c2c(C)ccc4[nH]ncc24)C3)CC1 [Example 164] | > 1 | C (“C”>50% POC) |  |  | 
13 | C=CC(=O)N1CCN(c2nc(OCCCN3CCOCC3)nc3c2CCN(c2c(F)c(O)cc4ccccc24)C3)CC1 [Example 165, 1-[4-[7-(2-fluoro-3-hydroxy-1-naphthyl)-2-(3-morpholinopropoxy)-6,8-dihydro-5H-pyrido[3,4-d]pyrimidin-4-yl]piperazin-1-yl]prop-2-en-1-one] |  |  |  | C (key: “A”≤25% POC; “B”>25% POC−≤50% POC; “C”>50% POC) | > 1
14 | C=CC(=O)N1CCN(c2nc(OCCCN3CCOCC3)nc3c2CCN(c2cc(O)cc4sc(C)nc24)C3)CC1 [Example 166, 1-[4-[7-(6-hydroxy-2-methyl-1,3-benzothiazol-4-yl)-2-(3-morpholinopropoxy)-6,8-dihydro-5H-pyrido[3,4-d]pyrimidin-4-yl]piperazin-1-yl]prop-2-en-1-one] |  |  |  | B (key: “A”≤25% POC; “B”>25% POC−≤50% POC; “C”>50% POC) | > 1
15 | C=CC(=O)N1CCN(c2nc(OCCCN3CCOCC3)nc3c2CCN(c2cc(O)cc4cc(C)[nH]c24)C3)CC1 [Example 167, 1-(4-(7-(5-hydroxy-2-methyl-1H-indol-7-yl)-2-(3-morpholinopropoxy)-5,6,7,8-tetrahydropyrido[3,4-d]pyrimidin-4-yl)piperazin-1-yl)prop-2-en-1-one] | > 1 | B (“B”>25% POC−≤50% POC) |  |  | 
16 | C=CC(=O)N1CCN(c2nc(OCCCN3CCOCC3)nc3c2CCN(c2cc(O)cc4ccccc24)C3)C(CO)C1 (centres unmarked) [Example 168, 1-(3-(hydroxymethyl)-4-(7-(3-hydroxynaphthalen-1-yl)-2-(3-morpholinopropoxy)-5,6,7,8-tetrahydropyrido[3,4-d]pyrimidin-4-yl)piperazin-1-yl)prop-2-en-1-one] | > 1 | C (“C”>50% POC) |  |  | 
17 | C=CC(=O)N1CCN(c2nc(OC[C@@H]3CCCN3C)nc3c2CCN(c2cc(O)cc4ccccc24)C3)C(CO)C1 (stereo partly drawn) [Example 169, 1-[3-(hydroxymethyl)-4-[7-(3-hydroxy-1-naphthyl)-2-[[(2S)-1-methylpyrrolidin-2-yl]methoxy]-6,8-dihydro-5H-pyrido[3,4-d]pyrimidin-4-yl]piperazin-1-yl]prop-2-en-1-one] |  | C (“C”>50% POC) | 0.0001 to 1 |  | 
18 | C=CC(=O)N1CCN(c2nc(OCCN(C)C)nc3c2CCN(c2cc(O)cc4ccccc24)C3)CC1CC#N (centres unmarked) [Example 170, 2-(1-acryloyl-4-(2-(2-(dimethylamino)ethoxy)-7-(3-hydroxynaphthalen-1-yl)-5,6,7,8-tetrahydropyrido[3,4-d]pyrimidin-4-yl)piperazin-2-yl)acetonitrile] | 0.0001 to 1 | C (“C”>50% POC) |  |  | 
19 | C=CC(=O)N1CCN(c2nc(OCCN(C)C)nc3c2CCN(c2cc(O)cc4ccccc24)C3)CC1CCO (centres unmarked) [Example 171, 1-(4-(2-(2-(dimethylamino)ethoxy)-7-(3-hydroxynaphthalen-1-yl)-5,6,7,8-tetrahydropyrido[3,4-d]pyrimidin-4-yl)-2-(2-hydroxyethyl)piperazin-1-yl)prop-2-en-1-one] |  |  |  | C (key: “A”≤25% POC; “B”>25% POC−≤50% POC; “C”>50% POC) | > 1
20 | C=CC(=O)N1CCN(c2nc(OCCN(C)C)nc3c2CCN(c2cc(O)cc4ccccc24)C3)C(CCO)C1 (centres unmarked) [Example 172, 1-(4-(2-(2-(dimethylamino)ethoxy)-7-(3-hydroxynaphthalen-1-yl)-5,6,7,8-tetrahydropyrido[3,4-d]pyrimidin-4-yl)-3-(2-hydroxyethyl)piperazin-1-yl)prop-2-en-1-one] |  | C (“C”>50% POC) | > 1 |  | 
21 | C=CC(=O)N1CCN(c2nc(OCCCN3CCOCC3)nc3c2CCN(c2c(C)c(O)cc4ccccc24)C3)CC1 [Example 173, 1-(4-(7-(3-hydroxy-2-methylnaphthalen-1-yl)-2-(3-morpholinopropoxy)-5,6,7,8-tetrahydropyrido[3,4-d]pyrimidin-4-yl)piperazin-1-yl)prop-2-en-1-one] | > 1 | C (“C”>50% POC) |  |  | 
22 | C=CC(=O)N1CCN(c2nc(OC[C@H]3CCC(C)(C)N3)nc3c2CCN(c2cc(O)cc4ccccc24)C3)CC1 [Example 174, (R)-1-(4-(2-((5,5-dimethylpyrrolidin-2-yl)methoxy)-7-(3-hydroxynaphthalen-1-yl)-5,6,7,8-tetrahydropyrido[3,4-d]pyrimidin-4-yl)piperazin-1-yl)prop-2-en-1-one] |  | C (“C”>50% POC) | > 1 |  | 

Reference: patent US10125134B2 (Mirati Therapeutics, Inc., priority 2016, dated 2018)
